Source: patent publication US7364900B2, “Multi-lineage directed induction of bone marrow stromal cell differentiation” (University of Medicine and Dentistry of New Jersey, priority 2001, dated 2008)

System: rMSCs
Assay: Induction of nestin-positive endodermal/neuronal precursor cells from marrow stromal cells
Assay type: cell-based, rat
Settings: sub-confluent rMSCs, pre-induction media supplemented with 1 mM BME, 24 hours
Method: Rat MSCs are originally cultured in alpha-Modified Eagle's Medium (alpha-MEM) supplemented with 20% FBS, 2 mM L-glutamine, 100 units per milliliter penicillin, 100 […] streptomycin and 25 nanograms per milliliter amphotericin B. For each passage the cells are plated at about 8,000 cells per square centimeter and grown to confluency. At passage 6 the cells are transferred to DMEM (pH 8.0)/20% FBS without additional supplementation, and maintained beyond passage 14. Subconfluent cultures of rat and human MSCs are maintained in DMEM/20% FBS.
Twenty-four hours before induction of partial differentiation to nestin-positive precursor cells, medium is replaced with a pre-induction medium consisting of DMEM, 20% FBS and 1 millimolar β-mercaptoethanol. The cells are then transferred to a serum free endodermal/neuronal precursor induction medium composed of DMEM and 1-10 millimolar β-mercaptoethanol. […] To effect further differentiation to pancreatic islet cell phenotype, the partially differentiated nestin-positive endodermal/neuronal precursor cells are transferred to serum-free DMEM containing 1-10 mM β-mercaptoethanol with and without 10 nanograms/ml basic fibroblast growth factor (bFGF).
rMSCs are initially maintained in sub-confluent cultures in pre-induction media supplemented with 1 mM beta-mercaptoethanol (BME) for 24 hours. […]

Which changes in morphology does the source give for `OCCS` [BME, beta-mercaptoethanol] here?
The changes in morphology was “no changes in morphology are evident”.
